# Measured values reported in article PMC3938723, “Learning from Host-Defense Peptides: Cationic, Amphipathic Peptoids with Potent Anticancer Activity” (PLoS ONE, 2014).
# Non-standard residues stand in square brackets, D forms with d. Residues, ends and D or L forms follow the SMILES beside them. Nspe = C[C@H](NCC(=O)O)c1ccccc1; Nlys = NCCCCNCC(=O)O
# What was measured:
# human red blood cells = details: concentration causing 10% hemolysis of human red blood cells; cited from earlier work
# From the text: Table 2 Peptoid Cytotoxicity in cancer cell lines and control cells. | column: HC10 (µM) ** || The chain length is believed to influence not only the activity but also modes of action of cationic, amphipathic peptides, [34]. […] Thus we limited the chain length of peptoids to 13 residues at most, and studied 1 9mer which has the same charge-to-length ratio (CTLR) as peptoid ...
# mice = test: Acute toxicity observation in xenograft mice; format: in vivo; details: intratumor injections ~1 mg/kg three times a week, xenograft NSG mice
# Method: 80,000 cells from a dissociated second generation metastatic breast cancer tumor were suspended in Medium 199 containing 25% Matrix Matrigel (Becton Dickinson 354248) and injected into the mammary fat pad of 4–8 week old NOD.Cg-Prkdc^scid Il2rg^tm1Wjl/SzJ (NSG) mice. After two weeks, 100 µl PBS containing 110 µM peptoid 1 or control peptide was injected into the mammary fat pad three times a week, roughly at a dose of 1 mg/kg. Tumor volumes were determined using direct caliper measurements following […] of treatment.
# Human breast cancer cells were implanted in the mammary fat pad of immunocompromised mice.
# MCF-7 cells [1] = test: Apoptotic DNA ladder assay; format: cell-based, human; details: 24 h treatment
# MCF-7 cells [2] = test: LDH leakage assay (plasma membrane integrity); format: cell-based, human; details: 50 µM, LDH leakage caused by cell lysis solution as the 100% control, measured immediately after treatment
# Method: This assay is used to measure the membrane integrity as a function of the amount of cytoplasmic LDH (lactic dehydrogenase) released into the medium. Experiments were carried out according to the protocol of the In Vitro Toxicology Assay Kit, Lactic Dehydrogenase (LDH) based (Sigma-Aldrich). Briefly, cells were plated as described before, and peptoids were diluted similarly but in culturing media without phenol red to reduce background signal. After peptoid treatments, media supernatant were collected and centrifuged to remove any cell debris, and analyzed for LDH activity in a 96-well plate using the kit, absorbance at 490 nm and 690 nm measured using a microplate reader. All the following absorbance difference = A 490nm –A 690nm. Percentage of LDH leakage = (A -A testblank)/(A lysis -A blank)×100, where A is the average absorbance difference of the test wells and A lysis the average absorbance difference of wells with cells treated with cell lysis solution provided by the kit for 45 min. A testblank (media, diluted peptoids and LDH measuring reagents) and A blank (media and LDH measuring reagents) were background absorbance differences measured in the absence of cells.
# These anticancer peptoids exert fast killing in cancer cells and are not affected by the multidrug resistance. […] The LDH assay measures membrane damage by quantifying the leakage of the cytoplasmic enzyme LDH. […]
# OVCAR3 (ovarian cancer) = test: MTS cell viability assay, OVCAR3; format: cell-based; details: 72 h
# Method: MCF-7, MCF-7/TxT50 and OVCAR-3 (available in ATCC) were kindly provided by Professor Branimir Sikic's lab at Stanford University, and were cultured in McCoy's 5A media (GIBCO) with 10% FBS and antibiotics. Primary dermal fibroblasts were gifts from Lifeline Cell Technology and were cultured <6 passages according to the protocol Lifeline provides. All the cells were cultured in cell incubators (Thermo Scientific) at 37°C with 5% CO2.
# This assay is a colorimetric method for determining the number of viable cells in proliferation. Aliquots of 100 µl media containing 1×10^4 cells were distributed into each well of a 96-well plate (BD Falcon). The following day, when cell density reaches about ∼40% confluency, the cell media were removed and replaced with serial dilutions of peptoid stocks in culturing media. For peptoid dilutions, peptoid stocks were initially diluted in media at 100 µM and then diluted by half in series using a multichannel pipette, and maintained in 100 µl media for each concentration with triple repeats. After peptoid solutions were transferred onto cells in 96-well plates, cells were incubated at 37°C for certain time periods. Then 20 µl of the CellTiter 96 Aqueous Non-Radioactive cell proliferation assay (Promega) reagent which contains a tetrazolium compound, [3-(4,5-dimethylthiazol-2-yl)-5-(3-carboxymethoxyphenyl)-2-(4-sulfophenyl)-2H-tetrazolium, inner salt; MTS(a)], was added to each well and cells were further incubated for 2 h to metabolize. The absorbance of formazan products were measured at 490 nm in a microplate reader (Molecular Devices). Percentage of cell viability = (A -A testblank)/(A control -A blank)×100, where A is the absorbance of the test well and A control the average absorbance of wells with cells not treated with peptoids. A testblank (media, MTS, and diluted peptoids) and A blank (media and MTS) were background absorbances measured in the absence of cells.
# The activity and selectivity of these peptoids against cancer cells were evaluated in vitro. Their cytotoxicity was tested in three cancer cell lines, MCF-7 (human breast cancer), LNCaP (human prostate cancer), and OVCAR-3 (human ovarian cancer). To estimate the selectivity of these peptoids in vitro, hemolytic activities of some peptoids were cited from previously published work (Table 2 **column), and the MRC-5 cell line (human fibroblasts derived from fetal lung tissues) and primary dermal fibroblasts were also tested as normal cell controls. Briefly, cells were treated with peptoids diluted in culturing media for certain time periods, and then cell viability was measured via MTS assays.
compound,measurement,setting,value
"C[C@@H](c1ccccc1)N(CC(N)=O)C(=O)CN(C(=O)CN(CCCCN)C(=O)CN(C(=O)CN(C(=O)CN(CCCCN)C(=O)CN(C(=O)CN(C(=O)CN(CCCCN)C(=O)CN(C(=O)CN(C(=O)CNCCCCN)[C@@H](C)c1ccccc1)[C@@H](C)c1ccccc1)[C@@H](C)c1ccccc1)[C@@H](C)c1ccccc1)[C@@H](C)c1ccccc1)[C@@H](C)c1ccccc1)[C@@H](C)c1ccccc1 [Peptoid 1, H-(NLys-Nspe-Nspe)4-NH2] (H-[Nlys][Nspe][Nspe][Nlys][Nspe][Nspe][Nlys][Nspe][Nspe][Nlys][Nspe][Nspe]-NH2)",HC10,human red blood cells,21 µM
same,acute side effects in mice,mice,without causing any obvious acute side effects
same,typical apoptotic DNA ladders,MCF-7 cells [1],not observed
same,LDH (enzyme) leakage,MCF-7 cells [2],~50%
same,LC50 OVCAR3 (ovarian cancer),OVCAR3 (ovarian cancer),6 µM
